pIC50: −log10 of the molar value. ≈ marks a conversion by molar mass, not a printed value. Read-outs that look alike come from different tables or passages of the source.
Legend:
P. falciparum = assay: Growth inhibition against P. falciparum; type: cell-based; details: for pIC50 / IC50: Plasmodium falciparum; for pIC50: read-out: Pf IC50; for IC50: read-out: P.f. IC50
P. falciparum DXR = biological target: T1, P. falciparum DXR (Plasmodium falciparum, UniProt Q8IKG4); assay: Inhibition of P. falciparum DXR enzyme; type: biochemical; details: for Pf DXR (% Residue): percent remaining enzyme activity at 100 μM compound
T1 sequence (Q8IKG4 73-488): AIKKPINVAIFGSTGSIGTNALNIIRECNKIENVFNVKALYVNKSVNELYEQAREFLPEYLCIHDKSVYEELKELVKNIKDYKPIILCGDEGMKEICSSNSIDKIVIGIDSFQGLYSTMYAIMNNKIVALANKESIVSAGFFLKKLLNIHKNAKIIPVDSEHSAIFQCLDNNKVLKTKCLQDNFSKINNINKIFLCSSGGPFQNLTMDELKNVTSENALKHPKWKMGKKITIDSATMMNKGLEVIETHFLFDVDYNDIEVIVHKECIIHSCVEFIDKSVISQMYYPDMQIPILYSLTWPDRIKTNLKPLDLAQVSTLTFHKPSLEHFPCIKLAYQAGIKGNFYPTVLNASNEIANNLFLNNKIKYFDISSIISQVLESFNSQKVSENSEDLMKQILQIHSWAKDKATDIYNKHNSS

[1] = tested on: P. falciparum had1 mutant strain; type: cell-based; details: in words
Mtb = Mtb growth inhibition (MIC99) in 7H9 and GAST-Fe media; type: cell-based, M. tuberculosis; details: Mycobacterium tuberculosis
Method: Selected analogs were tested for the growth inhibition against P. falciparum and Mtb in both rich media (7H9) and minimal media (GAST-Fe) following reported procedures.

Mtb DXR = Mtb DXR (Mycobacterium tuberculosis, UniProt P9WNS1); assay: Inhibition of Mtb DXR enzyme; type: biochemical, M. tuberculosis; details: percent remaining enzyme activity at 100 μM compound
Method: Phosphonic acid salts and prodrugs were evaluated as inhibitors of DXR from Mtb and P. falciparum and the results are shown in Table 6. Initially, the percent remaining enzyme activity was studied using a treatment of each compound at a single concentration of 100 μM. […] In general, the compounds display greater inhibition of DXR from P. falciparum compared with activity against the Mtb homolog.

HepG2 cells = assay: HepG2 cell inhibition (cytotoxicity) assay; type: cell-based; details: Homo sapiens, HepG2; Table 6, cytotoxicity; read-out: HepG2 IC50
Method: For cytotoxicity assays, HepG2 cells (ATCC HB-8065) were grown in DMEM supplemented with 4 mM L-glutamine (Gibco #11966-025) with either 4.5 g/L D-glucose or 1.8 g/L galactose as carbon source. Cells were trypsinized, resuspended in the respective medium (DMEM/glutamine/glucose or DMEM/glutamine/galactose) to 4×10^5 cells/mL and 50 μL/well transferred to flat-bottom white opaque tissue culture plates (Falcon #353296) containing 50 μL/well of the respective medium with test compound. Compound concentrations were two-fold dilutions ranging from 50 μM to 0.049 μM as well as the drug-free DMSO-only control. All concentrations were tested in duplicate for each carbon source. After 24 h incubation at 5% CO2, 37° C., 10 μL/well of Celltiter-Glo reagent (Promega #G9241) was added and luminescence recorded after 20 min incubation in the dark.

[2] = Table 3, diethyl phosphonate analogs
[3] = Table 2, phosphonic acid salts, read-out: Pf DXR IC50
[4] = minimal media (GAST-Fe), read-out: Mtb MIC99 Gast/Fe
[5] = rich media (7H9), read-out: Mtb MIC99 7H9

Chain of Mtb DXR (P9WNS1 whole entry): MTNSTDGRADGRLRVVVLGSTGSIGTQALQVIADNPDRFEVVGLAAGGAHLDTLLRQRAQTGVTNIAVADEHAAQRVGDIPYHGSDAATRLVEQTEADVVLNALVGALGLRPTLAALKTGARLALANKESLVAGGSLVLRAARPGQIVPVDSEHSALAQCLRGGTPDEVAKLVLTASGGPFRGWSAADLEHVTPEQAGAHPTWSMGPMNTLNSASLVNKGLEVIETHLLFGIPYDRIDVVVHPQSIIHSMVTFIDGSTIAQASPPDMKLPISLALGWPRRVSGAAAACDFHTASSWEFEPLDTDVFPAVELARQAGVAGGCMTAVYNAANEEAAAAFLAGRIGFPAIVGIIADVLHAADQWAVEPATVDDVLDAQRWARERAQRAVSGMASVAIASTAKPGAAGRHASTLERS

Compound | pIC50 (P. falciparum; Table 4, growth inhibition) | IC50 (P. falciparum; Table 6, growth inhibition) [µg/mL] | MIC99 (Mtb; [5]) [µg/mL] | further results
CCOP(=O)(/C=C/CN(O)C=O)OCC [Compound 11a, Diethyl [(1E)-3-(N-hydroxyformamido)prop-1-en-1-yl]phosphonate] | – | – | – | P.f. IC50 (P. falciparum; [2]): >100 µg/mL
CCOP(=O)(/C=C/CN(O)C(=O)C(F)(F)F)OCC [Compound 11b, Diethyl [(1E)-3-(2,2,2-trifluoro-N-hydroxyacetamido)prop-1-en-1-yl]phosphonate] | – | – | – | P.f. IC50 (P. falciparum; [2]): >100 µg/mL
CCOP(=O)(/C=C/CN(O)C(=O)OC)OCC [Compound 11c, Methyl N-[(2E)-3-(diethoxyphosphoryl)prop-2-en-1-yl]-N-hydroxycarbamate] | – | – | – | P.f. IC50 (P. falciparum; [2]): >100 µg/mL
O=C(N(O)C/C=C/P(=O)([O-])O)C(F)(F)F.[Na+] [Compound 12b, Sodium hydrogen [(1E)-3-(2,2,2-trifluoro-N-hydroxyacetamido)prop-1-en-1-yl]phosphonate] | 3.95 | – | – | Pf DXR (% Residue) (P. falciparum DXR): (36.96) %
COC(=O)N(O)C/C=C/P(=O)(O)O [Compound 12c, Diammonium [(1E)-3-[hydroxy(methoxycarbonyl)amino]prop-1-en-1-yl]phosphonate] | – | – | – | pIC50 (P. falciparum DXR; [3]): 4.84; pIC50 (P. falciparum): 4.54
CCOP(=O)(/C=C/CN(OC(C)c1ccccc1)C(C)=O)OCC (centres unmarked) [Compound 15d, Diethyl [(1E)-3-[N-(1-phenylethoxy)acetamido]prop-1-en-1-yl]phosphonate] | – | – | – | IC50 (P. falciparum; [2]): 23.5 µg/mL
CCOP(=O)(/C=C/CN(OCc1ccc(C(C)C)cc1)C(C)=O)OCC [Compound 15e, Diethyl [(1E)-3-(N-{[4-(propan-2-yl)phenyl]methoxy}acetamido)prop-1-en-1-yl]phosphonate] | – | – | – | IC50 (P. falciparum; [2]): 21.1 µg/mL
CCOP(=O)(/C=C/CN(OCc1ccc2ccccc2c1)C(C)=O)OCC [Compound 15f, Diethyl [(1E)-3-{N-[(naphthalen-2-yl)methoxy]acetamido}prop-1-en-1-yl]phosphonate] | – | – | – | IC50 (P. falciparum; [2]): 29.6 µg/mL
CCOP(=O)(/C=C/CN(OCc1ccc(-c2ccccc2)cc1)C(C)=O)OCC [Compound 15g, Diethyl [(1E)-3-{N-[(4-phenylphenyl)methoxy]acetamido}prop-1-en-1-yl]phosphonate] | – | – | – | IC50 (P. falciparum; [2]): 13.7 µg/mL
CC(=O)N(C/C=C/P(=O)(O)O)OC(C)c1ccccc1 (centres unmarked) [Compound 16d, Sodium hydrogen [(1E)-3-[N-(1-phenylethoxy)acetamido]prop-1-en-1-yl]phosphonate] | 5.92 | – | – | pIC50 (P. falciparum DXR; [3]): 5.60
CC(=O)N(C/C=C/P(=O)([O-])O)OCc1ccc(C(C)C)cc1.[Na+] [Compound 16e, Sodium hydrogen [(1E)-3-(N-{[4-(propan-2-yl)phenyl]methoxy}acetamido)prop-1-en-1-yl]phosphonate] | 5.96 | – | – | pIC50 (P. falciparum DXR; [3]): 5.68; resistance of had1 parasites compared with wild-type [1]: more resistant
CC(=O)N(C/C=C/P(=O)([O-])O)OCc1ccc2ccccc2c1.[Na+] [Compound 16f, Sodium hydrogen [(1E)-3-{N-[(naphthalen-2-yl)methoxy]acetamido}prop-1-en-1-yl]phosphonate] | 4.59 | – | – | Pf DXR (% Residue) (P. falciparum DXR): (25) %
CC(=O)N(C/C=C/P(=O)(O)O)OCc1ccc(-c2ccccc2)cc1 [Compound 16g, Sodium hydrogen [(1E)-3-{N-[(4-phenylphenyl)methoxy]acetamido}prop-1-en-1-yl]phosphonate] | 5.64 | – | – | pIC50 (P. falciparum DXR; [3]): 5.34
CC(C)(C)C(=O)OCOP(=O)(/C=C/CN(O)C(=O)C(F)(F)F)OCOC(=O)C(C)(C)C [Compound 18b, [({[(2,2-dimethylpropanoyl)oxy]methoxy}[(1E)-3-(2,2,2-trifluoro-N-hydroxyacetamido)prop-1-en-1-yl]phosphoryl)oxy]methyl 2,2-dimethylpropanoate] | 4.85 | – | – | –
COC(=O)N(O)C/C=C/P(=O)(OCOC(=O)C(C)(C)C)OCOC(=O)C(C)(C)C [Compound 18c, [({[(2,2-dimethylpropanoyl)oxy]methoxy}[(1E)-3-[hydroxy(methoxycarbonyl)amino]prop-1-en-1-yl]phosphoryl)oxy]methyl 2,2-dimethylpropanoate] | 4.63 | – | – | –
CC(=O)N(C/C=C/P(=O)(OCOC(=O)C(C)(C)C)OCOC(=O)C(C)(C)C)OCc1ccc(C(C)C)cc1 [Compound 19e, [({[(2,2-dimethylpropanoyl)oxy]methoxy}[(1E)-3-(N-{[4-(propan-2-yl)phenyl]methoxy}acetamido)prop-1-en-1-yl]phosphoryl)oxy]methyl 2,2-dimethylpropanoate] | 4.26 | – | – | –
CC(=O)N(C/C=C/P(=O)(OCOC(=O)C(C)(C)C)OCOC(=O)C(C)(C)C)OCc1ccc2ccccc2c1 [Compound 19f, [({[(2,2-dimethylpropanoyl)oxy]methoxy}[(1E)-3-{N-[(naphthalen-2-yl)methoxy]acetamido}prop-1-en-1-yl]phosphoryl)oxy]methyl 2,2-dimethylpropanoate] | 4.30 | – | – | –
CC(=O)N(C/C=C/P(=O)(OCOC(=O)C(C)(C)C)OCOC(=O)C(C)(C)C)OCc1ccc(-c2ccccc2)cc1 [Compound 19g, [({[(2,2-dimethylpropanoyl)oxy]methoxy}[(1E)-3-{N-[(4-phenylphenyl)methoxy]acetamido}prop-1-en-1-yl]phosphoryl)oxy]methyl 2,2-dimethylpropanoate] | 4.36 | – | – | –
CCOP(=O)(/C=C/CN(O)C(=O)c1ccccc1)OCC [Compound 31a, Diethyl [(1E)-3-(N-hydroxy-1-phenylformamido)prop-1-en-1-yl]phosphonate] | – | > 100 | > 100 | MIC99 (Mtb; [4]): > 100 µg/mL
CCOP(=O)(/C=C/CN(O)C(=O)Cc1ccccc1)OCC [Compound 31b, Diethyl [(1E)-3-(N-hydroxy-2-phenylacetamido)prop-1-en-1-yl]phosphonate] | – | 110 | > 100 | –
CCOP(=O)(/C=C/CN(O)C(=O)CCc1ccccc1)OCC [Compound 31c, Diethyl [(1E)-3-(N-hydroxy-3-phenylpropanamido)prop-1-en-1-yl]phosphonate] | – | > 100 | > 100 | MIC99 (Mtb; [4]): > 100 µg/mL
CCOP(=O)(/C=C/CN(O)C(=O)CCCc1ccccc1)OCC [Compound 31d, Diethyl [(1E)-3-(N-hydroxy-4-phenylbutanamido)prop-1-en-1-yl]phosphonate] | – | 11.1 | > 100 | MIC99 (Mtb; [4]): > 100 µg/mL
O=C(Cc1ccccc1)N(O)C/C=C/P(=O)([O-])O.[Na+] [Compound 32b, Sodium hydrogen [(1E)-3-(N-hydroxy-2-phenylacetamido)prop-1-en-1-yl]phosphonate] | – | 0.137 | > 100 | pIC50 (P. falciparum DXR; Table 6, N-acyl analogs, read-out: Pf Dxr IC50): 6.77; Mtb Dxr (% Residue) (Mtb DXR): (33.6) %
CC(C)(C)C(=O)OCOP(=O)(/C=C/CN(O)C(=O)c1ccccc1)OCOC(=O)C(C)(C)C [Compound 33a, [({[(2,2-dimethylpropanoyl)oxy]methoxy}[(1E)-3-(N-hydroxy-1-phenylformamido)prop-1-en-1-yl]phosphoryl)oxy]methyl 2,2-dimethylpropanoate] | – | 0.097 | 50 (≈ 103 µM) | pIC50 (HepG2 cells): < 4.30; resistance of had1 parasites compared with wild-type [1]: more resistant
CC(C)(C)C(=O)OCOP(=O)(/C=C/CN(O)C(=O)Cc1ccccc1)OCOC(=O)C(C)(C)C [Compound 33b, [({[(2,2-dimethylpropanoyl)oxy]methoxy}[(1E)-3-(N-hydroxy-2-phenylacetamido)prop-1-en-1-yl]phosphoryl)oxy]methyl 2,2-dimethylpropanoate] | – | 0.152 | 100 (≈ 200 µM) | MIC99 (Mtb; [4]): 74 µg/mL (≈ 148 µM)
CC(C)(C)C(=O)OCOP(=O)(/C=C/CN(O)C(=O)CCCc1ccccc1)OCOC(=O)C(C)(C)C [Compound 33d, [({[(2,2-dimethylpropanoyl)oxy]methoxy}[(1E)-3-(N-hydroxy-4-phenylbutanamido)prop-1-en-1-yl]phosphoryl)oxy]methyl 2,2-dimethylpropanoate] | – | 2.4 | > 100 | MIC99 (Mtb; [4]): 37 µg/mL (≈ 70.1 µM)
